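Test compounds were applied to cells in 96-well plates for 48 hours at 5 doses. At the TGI there is no net growth.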

Among the test systems are NCI-H23 lung; SNB-19 CNS; CCRF-CEM leukemia; SF-295 CNS; SNB-75 CNS; HOP-62 NSCLC; EKVX NSCLC; A549 NSCLC; SF-268 CNS; RXF 393 renal; TK-10 renal; HCC-2998 colon; SF-539 CNS; DU-145 prostate; 786-0 renal; U251 CNS; SK-OV-3 ovarian; NCI-H522 lung; LOX IMVI melanoma; MDA-N.
Holding throughout (test): NCI anticancer screen, dose series, 48 h

Regarding `CC(C)Oc1ccc(CNC2=NCCO2)c2ccccc12`, the TGI in the experiment on NCI-H23 lung was 30.2 µM; in the experiment with SNB-19 CNS, 23 µM; in the experiment on CCRF-CEM leukemia, 30.4 µM; in the experiment with SF-295 CNS it was 26.8 µM; in the experiment with SNB-75 CNS, 34.7 µM; with HOP-62 NSCLC it was 30.8 µM. The TGI turned out to be 29.2 µM in the experiment on EKVX NSCLC; 30.8 µM with A549 NSCLC; 45.7 µM with SF-268 CNS; 28.3 µM in the experiment on RXF 393 renal; 30.2 µM in the experiment with TK-10 renal; 25.3 µM with HCC-2998 colon. For the same compound, the TGI was determined as 24 µM in the experiment on SF-539 CNS; 33.5 µM with DU-145 prostate; 26.4 µM in the experiment on 786-0 renal; 32.1 µM in the experiment with U251 CNS; 30.9 µM in the experiment with SK-OV-3 ovarian.

For the compound `CSCCCNC(=O)c1csc(-c2csc(CCN)n2)n1`, the TGI in the experiment with NCI-H522 lung, in the experiment with NCI-H23 lung, with SNB-19 CNS, with CCRF-CEM leukemia, in the experiment with SF-295 CNS and in the experiment with HOP-62 NSCLC was more than 100 µM in each case. Also, the TGI in the experiment on EKVX NSCLC, in the experiment with A549 NSCLC, in the experiment with SF-268 CNS, with RXF 393 renal, in the experiment with TK-10 renal and in the experiment on HCC-2998 colon was more than 100 µM each time. Further, the TGI with SF-539 CNS, in the experiment with DU-145 prostate, with LOX IMVI melanoma, with 786-0 renal, with U251 CNS and in the experiment with SK-OV-3 ovarian was more than 100 µM each time.

As for `COc1ccc(C2=Nn3c(nc4sc(-c5ccccc5)cc4c3=O)SC2)cc1`, the TGI in the experiment with NCI-H522 lung, with NCI-H23 lung, with CCRF-CEM leukemia, in the experiment on MDA-N, in the experiment on SF-295 CNS and with HOP-62 NSCLC was more than 100 µM throughout. Also, the TGI with EKVX NSCLC, with A549 NSCLC, in the experiment with SF-268 CNS, in the experiment on TK-10 renal, in the experiment with HCC-2998 colon and with SF-539 CNS was more than 100 µM in each case. The TGI in the experiment with DU-145 prostate, in the experiment on LOX IMVI melanoma, in the experiment with 786-0 renal, in the experiment on U251 CNS and in the experiment with SK-OV-3 ovarian was more than 100 µM each time.

In the case of `O=C1c2cscc2C(=O)C1(O)O`, the TGI was 40.3 µM in the experiment on NCI-H522 lung; 45.9 µM with NCI-H23 lung; more than 100 µM in the experiment on SNB-19 CNS; 52.9 µM in the experiment on CCRF-CEM leukemia; more than 100 µM with MDA-N; more than 100 µM in the experiment on SF-295 CNS. Besides, the TGI in the experiment with HOP-62 NSCLC, in the experiment on EKVX NSCLC, in the experiment with A549 NSCLC, with SF-268 CNS, in the experiment on TK-10 renal and with SF-539 CNS was more than 100 µM throughout. The TGI with DU-145 prostate, with LOX IMVI melanoma, in the experiment on 786-0 renal, in the experiment on U251 CNS and with SK-OV-3 ovarian was more than 100 µM throughout.

In the case of `O=C1Oc2ccccc2C(=O)/C1=C/N1C(=O)N/C(=C\c2cccc(O)c2)C1=O`, the TGI in the experiment with NCI-H23 lung, with SNB-19 CNS, in the experiment on MDA-N, in the experiment with SF-295 CNS, in the experiment on SNB-75 CNS and with HOP-62 NSCLC was more than 100 µM in each case. The TGI in the experiment with EKVX NSCLC, in the experiment on A549 NSCLC, in the experiment with TK-10 renal, with HCC-2998 colon, in the experiment with SF-539 CNS and with DU-145 prostate was more than 100 µM throughout. Moreover, the TGI in the experiment on LOX IMVI melanoma, in the experiment with 786-0 renal, in the experiment on U251 CNS and with SK-OV-3 ovarian was more than 100 µM in each case.

For the compound `O=C1/C(=C/c2ccccc2)N=C(c2ccccc2)N1C1Nc2cc3c(cc2S1)NC(N1C(=O)/C(=C/c2ccccc2)N=C1c1ccccc1)S3` (centres undefined), the TGI in the experiment on NCI-H522 lung was 0.0623 µM; in the experiment with NCI-H23 lung it was 39.3 µM; with CCRF-CEM leukemia, more than 100 µM; with MDA-N, more than 100 µM; in the experiment with SF-295 CNS it was more than 100 µM; in the experiment with HOP-62 NSCLC it was more than 100 µM. The TGI with EKVX NSCLC was more than 100 µM; in the experiment with SF-268 CNS, more than 100 µM; with RXF 393 renal it was 54.3 µM; in the experiment with TK-10 renal, more than 100 µM; in the experiment with HCC-2998 colon it was 4.76 µM; with SF-539 CNS, more than 100 µM. Besides, the TGI in the experiment with DU-145 prostate, in the experiment on LOX IMVI melanoma, in the experiment on 786-0 renal, in the experiment with U251 CNS and with SK-OV-3 ovarian was more than 100 µM throughout.

In the case of `Cc1nc(-c2cc3c(ccc4ccccc43)oc2=O)cc2c1c(=O)oc1ccc3ccccc3c12`, the TGI with NCI-H522 lung, in the experiment on NCI-H23 lung, with SNB-19 CNS, with CCRF-CEM leukemia, in the experiment on SF-295 CNS and in the experiment on HOP-62 NSCLC was more than 100 µM throughout. Further, the TGI with EKVX NSCLC, in the experiment with A549 NSCLC, with SF-268 CNS, with RXF 393 renal, in the experiment with TK-10 renal and with HCC-2998 colon was more than 100 µM in each case. In addition, the TGI in the experiment on SF-539 CNS, in the experiment with DU-145 prostate, in the experiment with LOX IMVI melanoma, with 786-0 renal, in the experiment with U251 CNS and with SK-OV-3 ovarian was more than 100 µM in each case.

On to `NC1=CN(Cc2ccccc2)C2=N/C(=C\c3ccccc3)C(=O)N12`, for which the TGI in the experiment on NCI-H522 lung, in the experiment on NCI-H23 lung, in the experiment on SNB-19 CNS, in the experiment on CCRF-CEM leukemia, with SF-295 CNS and in the experiment with SNB-75 CNS was more than 100 µM in each case. For the same compound, the TGI in the experiment on HOP-62 NSCLC, with EKVX NSCLC, in the experiment on A549 NSCLC, in the experiment on SF-268 CNS, with RXF 393 renal and with TK-10 renal was more than 100 µM each time. The TGI in the experiment with HCC-2998 colon, with SF-539 CNS, with DU-145 prostate, in the experiment on LOX IMVI melanoma, in the experiment on 786-0 renal and in the experiment with U251 CNS was more than 100 µM throughout. The compound further registered a TGI in the experiment on SK-OV-3 ovarian of more than 100 µM.

The record behind these values is PubChem BioAssay (NCI).
